We go through one compound from ChEMBL document CHEMBL4014333, “Discovery of Small Molecules for Repressing Cap-Independent Translation of Human Vascular Endothelial Growth Factor (hVEGF) as Novel Antitumor Agents” (J Med Chem, 2017).

SMILES strings stand for the structures. Active and inactive are the calls of the source. The calls are words filed in the database; no cut-off is given here.

Test [1] is described as follows: Selectivity ratio of Kd for biotin-labeled hairpin DNA (unknown origin) to Kd for biotin-labeled human wild type internal ribosome entry site A RNA G-quadruplex.
Test [2] is described as follows: Binding affinity to RNA hairpin (unknown origin) at 1 uM after 24 hrs by spectrophotometric method.
Test [3] is filed under the species Homo sapiens. Kind of test: Destabilization of human wild type internal ribosome entry site A RNA G-quadruplex expressed in human MCF7 cells assessed as decrease in VEGF-A protein expression at 1.5 uM after 48 hrs by ELISA relative to control. It counts as cell-based. Also noted: scale not given: the % may be the effect or the level left. (In general: In an ELISA, binding on a coated surface is turned into a signal by an enzyme label.)

The subject of test [4] is MCF7. Kind of test: Cytotoxicity against human MCF7 cells assessed as reduction in cell viability. Format: cell-based.
The nature of test [5]: Binding affinity to TBA DNA G-quadruplex (unknown origin) at 1 uM after 24 hrs by spectrophotometric method.
Test [6] is filed under the species Homo sapiens. Kind of test: Destabilization of human wild type internal ribosome entry site A RNA G-quadruplex expressed in MCF7 cells assessed as down regulation of VEGF-A translation at 1.5 uM after 24 hrs by dual-luciferase reporter gene assay relative to control. It counts as cell-based. In general terms: In a reporter assay the amount or activity of a reporter protein is the signal.

Test [7] is filed under the species Homo sapiens. Kind of test: Binding affinity to human 5'-UCGGGCCGGGAGGAGCCGCAGCCGGAA-3' […] at 1 uM after 24 hrs by spectrophotometric method.
The species entered for test [8] is Homo sapiens. Kind of test: Binding affinity to internal ribosome entry site A RNA G-quadruplex region of VEGF-A protein in CoCl2 treated human MCF7 cells assessed as VEGF-A protein induced cell migration at 3 uM preincubated for 48 hrs followed by VEGF-A protein addition measured after 12 hrs by cell scrape test relative to control.
Test [9] can be described thus: Binding affinity to 5'- FAM-labeled 5'-GGAGGAGGGGGAGGAGGA-3' DNA (unknown origin) up to 60 uM after 5 mins by MST analysis.
For test [10], the species on record is Homo sapiens. Kind of test: Binding affinity to human 5'-UGAUGAGUGUGAGUAGUA-3' RNA at 1 uM after 24 hrs by spectrophotometric method.
Test [11] is filed under the species Homo sapiens. Kind of test: Selectivity ratio of Kd for biotin labeled human 5'-UGAUGAGUGUGAGGAGGA-3' RNA G-quadruplex to Kd for biotin-labeled human wild type internal ribosome entry site A RNA G-quadruplex.
The nature of test [12]: Inhibition of NT-647 dye-labeled BG4 binding to human wild type internal ribosome entry site A RNA G-quadruplex assessed as BG4 antibody Kd by MST analysis (reference value: 10.8 nM).
The species entered for test [13] is Homo sapiens. Kind of test: Binding affinity to internal ribosome entry site A RNA G-quadruplex region of VEGF-A protein in human MDA-MB-231 cells assessed as inhibition of VEGF-A protein induced cell migration at 0.5 to 8 uM after 10 hrs by RTCA method. It counts as cell-based.
For test [14], the system named is MCF7. Kind of test: Effect on human VEGF-A transcription expressed in human MCF7 cells assessed as Met luciferase gene expression at 0.1875 to 3 uM by qRT-PCR analysis. It counts as functional, cell-based. In general terms: Quantitative PCR measures a nucleic acid by following its amplification.
The species entered for test [15] is Homo sapiens. Kind of test: Destabilization of wild type internal ribosome entry site A RNA G-quadruplex in CoCl2 treated human MCF7 cells assessed as decrease in VEGF-A protein expression at 0.1875 to 3 uM after 48 hrs by Western blot analysis.
For test [16], the species on record is Homo sapiens. Kind of test: Destabilization of human wild type 5'-FAM labeled internal ribosome entry site A RNA G-quadruplex at 2.5 to 10 uM measured after 3 hrs by electrophoresis mobility shift assay.
Test [17] is filed under the species Homo sapiens. Kind of test: Binding affinity to internal ribosome entry site A RNA G-quadruplex region of VEGF-A protein in human MDA-MB-231 cells assessed as VEGF-A protein induced cell migration at 3 uM after 24 hrs by MTT dye based Transwell assay relative to control.

In general, IC50 refers to the concentration that inhibits the measured activity by half. One may read the Kd as the free concentration of one partner at which half of the binding sites on the other are occupied at equilibrium, for simple one-to-one binding. For `CCN(CC)CCOc1ccc(Nc2nc(-c3ccccc3NC(=O)CCN3CCN(C)CC3)nc3ccccc23)cc1`, the Selectivity ratio was 23 in test [1] and 4 in the test filed under Homo sapiens [11]. For the same compound, the outcome (in test [2]; in test [5]; in the test listed under Homo sapiens [7]; in the test listed under Homo sapiens [10]; in the test filed under Homo sapiens [13]; with MCF7 [14]) was inactive. The Activity in the test filed under Homo sapiens [3] is 75%; in the test listed under Homo sapiens [6] it was 80%; in the test listed under Homo sapiens [8] it was 35%; in the test filed under Homo sapiens [15], “Dose-dependent effect”; in the test filed under Homo sapiens [17], 25%. Also, the IC50 with MCF7 [4] is 12.5 µM. Besides, the result (in test [9]; in the test listed under Homo sapiens [16]) was Active. Moreover, in [12], the Kd was determined as 4.64 µM.
